These results are taken from patent US20240335505A1, “PRODUCTS AND METHODS FOR PROMOTING MYOGENESIS” (Ecole Polytechnique Federale de Lausanne (EPFL), priority 2021, published 2024).

The subject of one test is C. elegans. Put plainly: Muscle function and morphology in aged C. elegans. The class given is in vivo. To be noted: day 15 of adulthood; verteporfin 10 uM from L4 stage; egl-44 RNAi by maternal treatment (FIG. 19A-F). How it is done:
Transgenic Caenorhabditis Elegans. C. elegans strains were cultured at 20° C. on nematode growth medium (NGM) agar plates seeded with E. coli strain OP50 unless stated otherwise. Strains used in this study were the wild-type Bristol N2 and COP2054. N2 strain was provided by the Caenorhabditis Genetics Center (University of Minnesota). For RNAi experiments, worms were exposed to egl-44 RNAi or an empty vector control plasmid using maternal treatment to ensure robust knock down of the investigated gene. Verteporfin was dissolved in DMSO, and used at a final concentration of 10 uM. Worms were exposed to verteporfin starting from L4 stage. Verteporfin or DMSO was added to agar before preparing plates. To ensure a permanent exposure to the compound, plates were changed twice a week. The COP2054 worm strain expressing human CYTOR was generated by a custom transgenic service (Knudra Transgenics, Salt Lake City, UT). Briefly, Mosi-mediated Single Copy Insertion (MosSCI) started with the construction of myo3p::CYTOR::tbb2u, where the myo3p promoter and tbb-2 3′-UTR were taken from the N2 genome, and CYTOR was synthesized with codon and intron optimization for C. elegans. […]
C. […] 45 to 60 worms per condition were manually scored for paralysis after poking. Worms that were unable to respond to any repeated stimulation were scored as dead. […]

The target of a further test is T1, Tead1 (Mus musculus, UniProt P30051).
T1 construct: endogenous in cells; host or cells: C2C12 mouse myoblasts (ATCC CRL-1772)
T1 sequence (P30051 whole entry): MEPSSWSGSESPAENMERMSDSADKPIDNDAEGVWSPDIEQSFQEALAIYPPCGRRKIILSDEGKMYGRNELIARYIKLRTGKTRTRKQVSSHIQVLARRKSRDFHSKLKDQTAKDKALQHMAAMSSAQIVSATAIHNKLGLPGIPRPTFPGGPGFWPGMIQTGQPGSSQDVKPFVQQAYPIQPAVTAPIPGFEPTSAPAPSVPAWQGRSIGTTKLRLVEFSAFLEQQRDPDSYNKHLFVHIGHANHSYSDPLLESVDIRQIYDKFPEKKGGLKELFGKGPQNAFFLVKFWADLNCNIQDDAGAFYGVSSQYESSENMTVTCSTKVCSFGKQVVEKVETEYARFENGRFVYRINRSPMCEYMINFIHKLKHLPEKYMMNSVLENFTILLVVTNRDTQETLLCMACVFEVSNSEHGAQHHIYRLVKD
Nature of the test: C2C12 myoblast differentiation after disruption of Tead1 function (siRNA or Verteporfin). The class given is cell-based. How it is done:
Cell culture. The C2C12 mouse myoblast cell line was obtained from the American Type Culture Collection (CRL-1772TM). C2C12 and HEK293T cells (CRL-3216™, ATCCR) were cultured in growth medium consisting of Dulbecco's modified Eagle's medium (Gibco, 41966-029), 20% Fetal Bovine Serum (Gibco, 10270-106) and 100 U/mL penicillin and […] streptomycin (Gibco, 15140-122). Differentiation of Cytor/CYTOR overexpressing cells or Tead1 silenced cells were assessed in culture medium. Human skeletal muscle myoblasts (Lonza, Switzerland) were cultured in DMEM/F12 Glutamax (31331093, Gibco) supplemented with 20% FBS (Gibco, 10270-106) and 1% penicillin/streptomycin (15140-122, Gibco). Human skeletal muscle myoblasts from young, old and DMD donors were obtained from the Groupement Hospitalier Est (CBC BioTec, Centre de Ressources Biologique) and cultured in Ham F10 medium (11550043, Thermo Fisher) with 12% FBS (10270-106, Gibco) and 1% penicillin/streptomycin (Gibco, 15140-122). Muscle cell differentiation was achieved by substituting FBS with 2% horse serum (Gibco, 16050-122). For detachment Trypsin-EDTA 0.05% (25300-062, Gibco) was used for all cell lines. All cells were maintained at 37° C. and 5% CO2. Cell lines were continuously tested for mycoplasma contamination.
Cell transfection and transduction. Cell transfections were done using TransiT (Mirus) according to the manufacturer's protocol with a 3:1 ratio of transfection agent to DNA. 24 well plates were transfected with 150 ng DNA, 12 well plates with 300 ng DNA, and 6 well plates with 1 ug DNA. To transfect 25 nM GapmeR or siRNA in C2C12, LipofectamineR RNAiMAX (Thermo Scientific, 13778100) was used following manufacturer's instructions. […]
Immunocytochemistry. […] The myofusion index was calculated as the ratio of nuclei within myotubes to total nuclei. Myotube diameter was measured for 10 randomly chosen myotubes per image. Myotube area was calculated as the total area covered by myotubes. […]

Regarding Verteporfin, the “function and morphology of aged C. elegans (movement, speed, activity, paralysis, death)” value in the test with C. elegans was “phenocopied the beneficial effect of Cytor”. Also, the myotube area entry on Tead1 (C2C12 myoblasts (FIG. 18B)) was “increase myotube area”. The myofusion entry on Tead1 (C2C12 myoblasts (FIG. 18C)) is recorded as “increase”. In addition, the “expression of type II myosin isoforms” value at Tead1 (C2C12 myoblasts (FIG. 18D)) was “induce the expression of type II”.
